Data from the supplement of paper PMC11451515.

Tested on: NOMO1
Experiment: cell viability relative to DMSO control; higher = less cytotoxic
Settings: 48 h
How it was run: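 Three leukemia lines were tested: NOMO1 and SEM at 500 cells/well and P12-Ichikawa at 1000 cells/well. Each was adapted for at least four passages in each medium and seeded in 5 μl in 1536-well plates, and library compounds in DMSO were pin-dosed from 47 μM to 0.79 nM in 11 threefold steps. After 48 h at 37°C, CellTiter-Glo One luminescence was read. Viability is a percentage relative to DMSO wells on each plate, with cell-free wells as background.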

[1] = HPLM + 10% dialyzed FBS, 0.000781 µM
[2] = HPLM + 10% dialyzed FBS, 0.00234 µM
[3] = HPLM + 10% dialyzed FBS, 0.00702 µM
[4] = HPLM + 10% dialyzed FBS, 0.0211 µM
[5] = HPLM + 10% dialyzed FBS, 0.0632 µM
[6] = HPLM + 10% dialyzed FBS, 0.19 µM
[7] = HPLM + 10% dialyzed FBS, 0.569 µM
[8] = HPLM + 10% dialyzed FBS, 1.71 µM
[9] = HPLM + 10% dialyzed FBS, 5.12 µM
[10] = HPLM + 10% dialyzed FBS, 15.4 µM
[11] = HPLM + 10% dialyzed FBS, 46.1 µM
[12] = RPMI 5 mM glucose + 10% FBS, 0.000781 µM
[13] = RPMI 5 mM glucose + 10% FBS, 0.00234 µM
[14] = RPMI 5 mM glucose + 10% FBS, 0.00702 µM
[15] = RPMI 5 mM glucose + 10% FBS, 0.0211 µM
[16] = RPMI 5 mM glucose + 10% FBS, 0.0632 µM
[17] = RPMI 5 mM glucose + 10% FBS, 0.19 µM
[18] = RPMI 5 mM glucose + 10% FBS, 0.569 µM
[19] = RPMI 5 mM glucose + 10% FBS, 1.71 µM
[20] = RPMI 5 mM glucose + 10% FBS, 5.12 µM
[21] = RPMI 5 mM glucose + 10% FBS, 15.4 µM
[22] = RPMI 5 mM glucose + 10% FBS, 46.1 µM
[23] = RPMI 5 mM glucose + 10% dialyzed FBS, 0.000781 µM
[24] = RPMI 5 mM glucose + 10% dialyzed FBS, 0.00234 µM
[25] = RPMI 5 mM glucose + 10% dialyzed FBS, 0.00702 µM
[26] = RPMI 5 mM glucose + 10% dialyzed FBS, 0.0211 µM
[27] = RPMI 5 mM glucose + 10% dialyzed FBS, 0.0632 µM
[28] = RPMI 5 mM glucose + 10% dialyzed FBS, 0.19 µM
[29] = RPMI 5 mM glucose + 10% dialyzed FBS, 0.569 µM
[30] = RPMI 5 mM glucose + 10% dialyzed FBS, 1.71 µM
[31] = RPMI 5 mM glucose + 10% dialyzed FBS, 5.12 µM
[32] = RPMI 5 mM glucose + 10% dialyzed FBS, 15.4 µM
[33] = RPMI 5 mM glucose + 10% dialyzed FBS, 46.1 µM

Structure (SMILES)	cell viability [1] [%]	cell viability [2] [%]	cell viability [3] [%]	cell viability [4] [%]	cell viability [5] [%]	cell viability [6] [%]	cell viability [7] [%]	cell viability [8] [%]	cell viability [9] [%]	cell viability [10] [%]	cell viability [11] [%]	cell viability [12] [%]	cell viability [13] [%]	cell viability [14] [%]	cell viability [15] [%]	cell viability [16] [%]	cell viability [17] [%]	cell viability [18] [%]	cell viability [19] [%]	cell viability [20] [%]	cell viability [21] [%]	cell viability [22] [%]	cell viability [23] [%]	cell viability [24] [%]	cell viability [25] [%]	cell viability [26] [%]	cell viability [27] [%]	cell viability [28] [%]	cell viability [29] [%]	cell viability [30] [%]	cell viability [31] [%]	cell viability [32] [%]	cell viability [33] [%]
COc1ccc(/C=C/C(=O)Nc2ccccc2C(=O)O)cc1OC	119	105	120	149	112	117	119	78.8	120	73.7	86.9	108	111	108	109	114	110	105	95	112	92.3	87.5	104	114	118	94.8	104	128	105	110	104	104	83.8
CCC(=O)NC[C@H](Cc1ccc(OCCc2nc(-c3ccccc3)oc2C)cc1)N/C(C)=C\C(=O)c1ccc(C(F)(F)F)cc1	98.9	104	101	122	114	130	96.3	104	103	54.3	27.1	102	114	109	99.6	106	112	101	109	113	62.4	19.2	97.9	113	102	115	106	117	107	107	90.8	105	43.7
O=C(Nc1cccnc1)N1CCC(Cc2cccc(Oc3ccc(C(F)(F)F)cn3)c2)CC1	98.9	112	108	116	115	115	116	91.4	81.3	32.6	19	111	104	99.7	98.6	110	107	108	101	108	35.1	23	98.2	103	92.1	102	102	118	116	107	85.8	47	31.5
Cc1nc(-c2ccc(-c3ccc(C(=O)N4CCc5cc6c(cc54)C4(CCN(C)CC4)CO6)cc3)c(C)c2)no1	92.2	119	105	124	136	131	128	129	127	127	135	107	120	111	104	116	115	128	104	110	111	112	104	111	116	104	101	131	135	118	122	117	118
CN1CCN(CC1)C2=CC3=C([NH]C(=N3)C/4=C(\N)C5=C(F)C=CC=C5NC4=O)C=C2	104	99.7	98.5	97.4	96.3	102	97.2	93.9	60.8	49.7	51.1	101	107	96.7	107	111	109	107	104	87.9	68.3	58.6	92.1	99.9	115	96.1	99	102	100	92.3	79.7	63.1	53.4
COCCCC/C(=N\OCCN)c1ccc(C(F)(F)F)cc1	85.7	80.4	79.2	85.2	94.8	91.8	78.6	64.2	81.3	48.9	3.91	84.2	82	80.9	84.5	80.7	79.5	82	83	72.5	72.7	25.5	72.7	80.1	83.5	88.8	90.1	73.1	75.9	80	77.1	77.1	28.7
CCC(=O)O[C@@]1(CC[C@H]2[C@@H]3CCC/4=C/C(=O)CC[C@]4(C)[C@H]3CC[C@]12C)C(=O)CO	75.8	115	103	111	119	128	106	140	108	85.4	78.7	109	112	106	111	107	118	115	104	104	108	103	107	103	102	119	124	122	124	129	128	86.1	83.3
Cc1ccc(C(=O)Nc2ccc([S+](=O)([O-])O)c3cc([S+](=O)([O-])O)cc([S+](=O)([O-])O)c23)cc1NC(=O)c1cccc(NC(=O)Nc2cccc(C(=O)Nc3cc(C(=O)Nc4ccc([S+](=O)([O-])O)c5cc([S+](=O)([O-])O)cc([S+](=O)([O-])O)c45)ccc3C)c2)c1	95.4	93.6	96.9	90.1	91.5	71.9	69.3	73.6	40.8	37.1	38.4	89.4	83.9	107	89.7	90.4	85.9	84.7	90.4	75.6	69	62.2	91.9	91	93.1	101	76.9	85.8	87.6	88.9	76.9	56.3	52.5
N#Cc1c(N(CC(=O)[O-])CC(=O)[O-])sc(C(=O)[O-])c1CC(=O)[O-].O.O.O.O.O.O.O.[Sr+2].[Sr+2]	113	123	150	130	137	129	148	123	138	124	112																						
CCN(CC)CCCC(C)Nc1ccnc2cc(Cl)ccc12 (configuration not stated)	112	100	124	115	120	103	104	69.7	74	31.6	31.5	103	112	99.2	102	117	108	110	92.8	99.7	21.1	18	124	120	118	134	120	121	120	111	107	26.9	26.5
Cc1n[nH]c2ccc(-c3cncc(OC[C@@H](N)Cc4ccccc4)c3)cc12												127	118	113	125	120	113	110	99.7	23.6	12.9	5.8	134	124	120	114	133	83.5	109	77.9	15.1	8.65	4.35
CC(C)(Sc1cc(C(C)(C)C)c(O)c(C(C)(C)C)c1)Sc1cc(C(C)(C)C)c(O)c(C(C)(C)C)c1	88.5	92.3	85.6	105	108	90.4	96.2	94.3	79.1	103	91.6	84.4	92.5	86.2	91.3	86.4	98.4	92.8	84.8	92.7	93	84.8	79.7	88.3	94.6	83.7	98.9	105	95.5	94.5	81.4	90.2	94
COc1c(N2C[C@@H]3CCCN[C@@H]3C2)c(F)cc2c(=O)c(C(=O)O)cn(C3CC3)c12.Cl.O	118	115	103	104	100	87.2	82.6	101	92.4	80.5	87.5	92.2	94.1	103	105	113	93.8	95	93.7	97.6	85.9	85.5	105	98.5	108	106	99.1	87.3	96	98.4	87.4	86.3	85.6
N#CC1(c2cccc(C(=O)Nc3cc(Oc4ccc5nc(NC(=O)C6CC6)sc5n4)ccc3F)c2Cl)CC1	105	121	114	113	119	93.8	91	56.6	39.2	18.2	18.2	115	113	107	100	103	105	104	76.7	48.8	10.7	10.6	118	123	96.5	98.2	98.7	90.6	72.9	70.1	53.9	16.9	15.6
Cc1nnc(C(=O)NC(C)(C)c2nc(C(=O)NCc3ccc(F)cc3)c(O)c(=O)n2C)o1	121	112	119	118	104	103	106	101	95.6	97.9	96.6	87.6	99.4	96.8	92.4	96.7	99.1	100	91.2	86.5	92.2	93.3	93.7	100	107	93.1	109	96.6	95	96.8	93.7	104	94.5
